Test results reported in PMC8658909, “Organometallic small molecule kinase inhibitors – direct incorporation of Re and ^99mTc into Opaganib®” (Chemical Communications (Cambridge, England), 2021).

Molecular target: T1, sphingosine kinase-2 (SK2) (Homo sapiens, UniProt Q9NRA0)
T1 construct: gene SPHK2
T1 sequence (Q9NRA0 1-654): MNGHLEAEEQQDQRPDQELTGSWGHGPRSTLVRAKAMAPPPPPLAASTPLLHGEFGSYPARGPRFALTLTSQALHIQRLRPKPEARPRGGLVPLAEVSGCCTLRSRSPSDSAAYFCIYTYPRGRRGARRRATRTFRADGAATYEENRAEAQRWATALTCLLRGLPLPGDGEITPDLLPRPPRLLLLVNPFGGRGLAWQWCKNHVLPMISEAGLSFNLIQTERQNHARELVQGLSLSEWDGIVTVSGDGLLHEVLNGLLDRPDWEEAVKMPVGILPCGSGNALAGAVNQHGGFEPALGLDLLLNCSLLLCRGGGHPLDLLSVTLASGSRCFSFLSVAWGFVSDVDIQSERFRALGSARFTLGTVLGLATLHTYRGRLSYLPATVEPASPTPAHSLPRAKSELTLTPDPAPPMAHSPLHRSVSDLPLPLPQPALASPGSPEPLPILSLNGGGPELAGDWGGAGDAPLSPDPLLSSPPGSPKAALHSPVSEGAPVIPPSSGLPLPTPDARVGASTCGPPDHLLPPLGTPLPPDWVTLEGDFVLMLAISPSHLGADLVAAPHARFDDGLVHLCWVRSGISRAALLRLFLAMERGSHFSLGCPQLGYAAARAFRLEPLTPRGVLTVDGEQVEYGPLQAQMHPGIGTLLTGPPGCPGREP
Experiment: SK2 kinase inhibition IC50 (details in ESI)
Format: biochemical

## O=C(NCc1ccncc1)C12CC3CC(C1)CC(c1ccc(Cl)cc1)(C3)C2 [Opaganib®, Opaganib]
  IC50: 15.8 ± 3 µM
